The text below walks through data of patent publication US9751837B2, “Kinase inhibitors” (RESPIVERT LIMITED, priority 2014, dated 2017).

This series can be described thus: Solubility in fasted-state simulated colonic fluid (FaSSCoF) at pH 6.5. It counts as physicochemical. The note with it: for solubility thermodynamic at 24 h: 25 °C, pH 6.5, fassgf or other biorelevant, thermodynamic from solid. As for the experimental part: The solubilities of compounds of the invention in FaSSCoF at pH 6.5 are determined using a modification of a previously-reported procedure (Vertzoni, M., et al. Pharm. Res. 2010, 27, 2187-2196). In place of the bile salt extract employed in the original procedure (which extract is no longer available), the modified procedure uses a mixture of sodium taurochlorate (0.15 g), glycocholic acid (0.15 g), ursodeoxycholic acid (0.05 g), cholic acid (0.05 g), and glycodeoxycholic acid (0.05 g). These five bile acids are ground together with a mortar and pestle to produce a fine white powder that is incorporated into the FaSSCoF, as outlined below.
Tris(hydroxymethyl)aminomethane (Tris; 0.275 g) and maleic acid (0.44 g) are dissolved in water (35 mL) to give a solution whose pH is adjusted to 6.5 by treatment with 0.5M NaOH (ca. 12 mL). The solution is then made up to 50 mL with water. A portion of this Tris/maleate buffer solution (ca. 25 mL) is added to a 0.5 L round-bottomed flask, before being treated with 0.00565 g of the bile acid mixture described above. Solutions of phosphatidylcholine (0.0111 g) in DCM (0.15 mL) and palmitic acid (0.0013 g) in DCM (0.15 mL) are added, then the organic solvent is evaporated off under reduced pressure at 40° C. until a clear solution, with no perceptible DCM odour, is achieved. The volume of the evaporated solution is adjusted to 50 mL by addition of the remainder of Tris/maleate buffer, then BSA (0.115 g) is added, before being dissolved by gentle agitation.
Test compounds are suspended in the pH 6.5 FaSSCoF medium to give a maximum final concentration of 2-10 mg/mL. The suspensions are equilibrated at 25° C. for 24 h, before being filtered through a glass fibre C filter. The filtrates are then diluted as appropriate for injection and quantification by HPLC with reference to a standard. Different volumes of the standard, diluted and undiluted sample solutions are injected and the solubilities are calculated using the peak areas determined by integration of the peak found at the same retention time as the principal peak in the standard injection.

Where [1] appears, read: pH 6.5 FaSSCoF Solubility (mg/mL) Run 1.
[2] abbreviates: pH 6.5 FaSSCoF Solubility (mg/mL) Run 2.

The structures appear in SMILES notation. In brackets after ≈: the same amount, converted by molar mass. Structures can show the parent of a compound that is named as a salt. Where two headings read alike, the source gives them in different places.

`COc1cc(Nc2cc(Oc3ccc(NC(=O)Nc4cc(C(C)(C)C)cc(NS(C)(=O)=O)c4OC)c4ccccc34)ccn2)cc(OC)c1C(=O)N1CCN(CCN(C)C)CC1` [17(cg), N-(5-(tert-Butyl)-3-(3-(4-((2-((4-(4-(2-(dimethylamino)ethyl)piperazine-1-carbonyl)-3,5-dimethoxyphenyl)amino)pyridin-4-yl)oxy)naphthalen-1-yl)ureido)-2-methoxyphenyl)methane sulfonamide] gave a solubility thermodynamic at 24 h under setting [1] of 0.002 mg/mL (≈ 2.3 µM).

Consider `COc1cc(Nc2cc(Oc3ccc(NC(=O)Nc4cc(C(C)(C)C)cc(NS(C)(=O)=O)c4OC)c4ccccc34)ccn2)ccc1C(=O)NCCN1CCN(C(=O)CN(C)C)CC1` [17(cj), 4-((4-((4-(3-(5-(tert-Butyl)-2-methoxy-3-(methylsulfonamido)phenyl)ureido)naphthalen-1-yl)oxy)pyridin-2-yl)amino)-N-(2-(4-(2-(dimethylamino)acetyl)piperazin-1-yl)ethyl)-2-methoxybenzamide], for which the solubility thermodynamic at 24 h was 0.006 mg/mL (≈ 6.7 µM) under setting [1] and 0.006 mg/mL (≈ 6.7 µM) under setting [2].

With `COc1cc(Nc2cc(Oc3ccc(NC(=O)Nc4cc(C(C)(C)C)cc(NS(C)(=O)=O)c4OC)c4ccccc34)ccn2)cc(OC)c1C(=O)NCC(CO)(CO)CO` [17(cn), 4-((4-((4-(3-(5-(tert-Butyl)-2-methoxy-3-(methylsulfonamido)phenyl)ureido)naphthalen-1-yl)oxy)pyridin-2-yl)amino)-N-(3-hydroxy-2,2-bis(hydroxymethyl)propyl)-2,6-dimethoxybenzamide], the solubility thermodynamic at 24 h under setting [1] is 0.025 mg/mL (≈ 29.5 µM) and the solubility thermodynamic at 24 h under setting [2] is 0.017 mg/mL (≈ 20.1 µM).

Consider `COc1cc(Nc2cc(Oc3ccc(NC(=O)Nc4cc(C(C)(C)C)cc(NS(C)(=O)=O)c4OC)c4ccccc34)ccn2)ccc1C(=O)NC[C@@H]1O[C@H](CO)[C@@H](O)[C@H](O)[C@H]1O` [17(co), 4-((4-((4-(3-(5-(tert-Butyl)-2-methoxy-3-(methylsulfonamido)phenyl)ureido)naphthalen-1-yl)oxy)pyridin-2-yl)amino)-2-methoxy-N-(((2S,3R,4R,5S,6R)-3,4,5-trihydroxy-6-(hydroxymethyl)tetrahydro-2H-pyran-2-yl)methyl)benzamide], for which the solubility thermodynamic at 24 h by setting is: (FaSSCoF pH 6.5, 25° C., 24 h, Run 1, read-out: pH 6.5 FaSSCoF Solubility (mg/mL) Run 1) 0.005 mg/mL (≈ 5.71 µM); (FaSSCoF pH 6.5, 25° C., 24 h, Run 2, read-out: pH 6.5 FaSSCoF Solubility (mg/mL) Run 2) 0.006 mg/mL (≈ 6.86 µM).

Take `COc1cc(Nc2cc(Oc3ccc(NC(=O)Nc4cc(C(C)(C)C)cc(NS(C)(=O)=O)c4OC)c4ccccc34)ccn2)ccc1C(=O)NCCOCCOCCOP(=O)(O)O` [19 (ammonium salt), 2-(2-(2-(4-((4-((4-(3-(5-(tert-Butyl)-2-methoxy-3-(methylsulfonamido)phenyl)ureido)-naphthalen-1-yl)oxy)pyridin-2-yl)amino)-2-methoxybenzamido)ethoxy)ethoxy)ethyl dihydrogen phosphate]: the solubility thermodynamic at 24 h by setting is: under setting [1], 0.946 mg/mL; under setting [2], 0.881 mg/mL.

`COc1cc(Nc2cc(Oc3ccc(NC(=O)Nc4cc(C(C)(C)C)cc(NS(C)(=O)=O)c4OC)c4ccccc34)ccn2)ccc1C(=O)NCCOCCOCCOP(=O)(O)O` [19 (sodium salt), 2-(2-(2-(4-((4-((4-(3-(5-(tert-Butyl)-2-methoxy-3-(methylsulfonamido)phenyl)ureido)-naphthalen-1-yl)oxy)pyridin-2-yl)amino)-2-methoxybenzamido)ethoxy)ethoxy)ethyl dihydrogen phosphate]: the “pH 6.5 FaSSCoF Solubility (mg/mL) Run 1” value (24 h, pH 6.5) was greater than 4.7 mg/mL.

Consider `COc1cc(Nc2cc(Oc3ccc(NC(=O)Nc4cc(C(C)(C)C)cc(NS(C)(=O)=O)c4OC)c4ccccc34)ccn2)ccc1C(=O)NCCCCCCC(=O)O` [34 (hydrochloride salt), 7-(4-((4-((4-(3-(5-(tert-Butyl)-2-methoxy-3-(methylsulfonamido)phenyl)ureido)naphthalen-1-yl)oxy)pyridin-2-yl)amino)-2-methoxybenzamido)heptanoic acid, hydrochloride salt], for which the solubility thermodynamic at 24 h was 0.001 mg/mL under setting [1] and 0.001 mg/mL under setting [2].

Regarding `COc1cc(Nc2cc(Oc3ccc(NC(=O)Nc4cc(C(C)(C)C)cc(NS(C)(=O)=O)c4OC)c4ccccc34)ccn2)ccc1C(=O)NCCOP(=O)(O)O` [35 (sodium salt), 2-(4-((4-((4-(3-(5-(tert-Butyl)-2-methoxy-3-(methylsulfonamido)phenyl)ureido)naphthalen-1-yl)oxy)pyridin-2-yl)amino)-2-methoxybenzamido)ethyl dihydrogen phosphate], the solubility thermodynamic at 24 h was greater than 3.5 mg/mL under setting [1] and greater than 4.2 mg/mL under setting [2].

Regarding `COc1cc(Nc2cc(Oc3ccc(NC(=O)Nc4cc(C(C)(C)C)cc(NS(C)(=O)=O)c4OC)c4ccccc34)ccn2)cc(OC)c1C(=O)NCCOCCOCCOP(=O)(O)O` [47 (sodium salt), 2-(2-(2-(4-((4-((4-(3-(5-(tert-butyl)-2-methoxy-3-(methylsulfonamido)phenyl)ureido)-naphthalen-1-yl)oxy)pyridin-2-yl)amino)-2,6-dimethoxybenzamido)ethoxy)ethoxy)ethyl dihydrogen phosphate], the solubility thermodynamic at 24 h reads like this: under setting [1], greater than 1.9 mg/mL; under setting [2], greater than 2 mg/mL.

In the case of `COc1c(NC(=O)Nc2ccc(Oc3ccnc(Nc4ccc(P(C)(=O)O)c(N(C)C)c4)c3)c3ccccc23)cc(C(C)(C)C)cc1NS(C)(=O)=O` [68 (sodium salt)], the solubility thermodynamic at 24 h under setting [1] was 0.02 mg/mL and the solubility thermodynamic at 24 h under setting [2] is 0.02 mg/mL.

As for `COc1cc(Nc2cc(Oc3ccc(NC(=O)Nc4cc(C(C)(C)C)cc(NS(C)(=O)=O)c4OC)c4ccccc34)ccn2)ccc1CP(C)(=O)O` [70 (sodium salt)], the solubility thermodynamic at 24 h by setting is: under setting [1], greater than 2.8 mg/mL; under setting [2], greater than 2.8 mg/mL.

`COc1cc(Nc2cc(Oc3ccc(NC(=O)Nc4cc(C(C)(C)C)cc(NS(C)(=O)=O)c4OC)c4ccccc34)ccn2)ccc1S(=O)(=O)CCCN1CCOCC1` [Example 20, N-(5-(tert-Butyl)-2-methoxy-3-(3-(4-((2-((3-methoxy-4-((3-morpholinopropyl)sulfonyl)phenyl)-amino)pyridin-4-yl)oxy)naphthalen-1-yl)ureido)phenyl)methanesulfonamide] registered a solubility thermodynamic at 24 h under setting [1] of 0.004 mg/mL (≈ 4.72 µM).

`COc1c(NC(=O)Nc2ccc(Oc3ccnc(Nc4ccc(C(=O)NCCN5CCOCC5)c(N(C)C)c4)c3)c3ccccc23)cc(C(C)(C)C)cc1NS(C)(=O)=O` [Example 21, 4-((4-((4-(3-(5-(tert-Butyl)-2-methoxy-3-(methylsulfonamido)phenyl)ureido)naphthalen-1-yl)oxy)pyridin-2-yl)amino)-2-(dimethylamino)-N-(2-morpholinoethyl)benzamide]: the solubility thermodynamic at 24 h runs as follows: under setting [1], 0.01 mg/mL (≈ 12.1 µM); under setting [2], 0.01 mg/mL (≈ 12.1 µM).

Turning to `COc1cc(Nc2cc(Oc3ccc(NC(=O)Nc4cc(C(C)(C)C)cc(NS(C)(=O)=O)c4OC)c4ccccc34)ccn2)cc(OC)c1C(=O)NCCCN1CCOCC1` [Example 23, 4-((4-((4-(3-(5-(tert-Butyl)-2-methoxy-3-(methylsulfonamido)phenyl)ureido)naphthalen-1-yl)oxy)pyridin-2-yl)amino)-2,6-dimethoxy-N-(3-morpholinopropyl)benzamide], the solubility thermodynamic at 24 h is, setting by setting: under setting [1], 0.008 mg/mL (≈ 9.35 µM); under setting [2], 0.008 mg/mL (≈ 9.35 µM).

As for `COc1cc(Nc2cc(Oc3ccc(NC(=O)Nc4cc(C(C)(C)C)cc(NS(C)(=O)=O)c4OC)c4ccccc34)ccn2)ccc1C(=O)NCCN1CCN(C2CC2)CC1` [Example 26, 4-((4-((4-(3-(5-(tert-Butyl)-2-methoxy-3-(methylsulfonamido)phenyl)ureido)naphthalen-1-yl)oxy)pyridin-2-yl)amino)-N-(2-(4-cyclopropylpiperazin-1-yl)ethyl)-2-methoxybenzamide], the solubility thermodynamic at 24 h is, setting by setting: under setting [1], 0.011 mg/mL (≈ 12.9 µM); under setting [2], 0.011 mg/mL (≈ 12.9 µM).

Compound `COc1cc(Nc2cc(Oc3ccc(NC(=O)Nc4cc(C(C)(C)C)cc(NS(C)(=O)=O)c4OC)c4ccccc34)ccn2)ccc1C(=O)NCC[N+]1([O-])CCOCC1` [Example 33, 4-(2-(4-((4-((4-(3-(5-(tert-Butyl)-2-methoxy-3-(methylsulfonamido)phenyl)ureido)naphthalen-1-yl)oxy)pyridin-2-yl)amino)-2-methoxybenzamido)ethyl)morpholine 4-oxide] came in with a solubility thermodynamic at 24 h under setting [1] of 0.005 mg/mL (≈ 6.04 µM) and a solubility thermodynamic at 24 h under setting [2] of 0.005 mg/mL (≈ 6.04 µM).
